The source of these data is ChEMBL document CHEMBL3091297, “Antiprion compounds that reduce PrP(Sc) levels in dividing and stationary-phase cells” (Bioorg Med Chem, 2013).

The structures appear in SMILES notation. Where only a bound is given, the exact number is not on record here.

Series [1] can be described thus: Inhibition of RML prion protein infected in mouse dividing ScN2a-cl3 cells expressing full length mouse PrP assessed as reduction of PrPsc level after 5 days by Western blotting analysis. The class given is cell-based. The following applies: N2a-cl3, 120 h.
Series [2] in a line: cells. Format: cell-based. The following applies: Mus musculus, N2a-cl3, 120 h.
Series [3] is described as follows: AUClast in FVB mouse plasma at 10 mg/kg, po qd. Also on record: time 0 - last, dose 10 mg/kg, route oral. The class given is ADME, organism-based.
Series [4] can be described thus: Cmax in FVB mouse plasma at 10 mg/kg, po qd. Format: ADME, organism-based. Also on record: dose 10 mg/kg, route oral.
Series [5] is described as follows: Ratio of AUClast in FVB mouse brain to FVB mouse plasma. The class given is ADME. The following applies: read-out: Ratio AUC.
A short description of series [6]: AUClast in FVB mouse brain at 10 mg/kg, po qd. Details: time 0 - last, dose 10 mg/kg, route oral. Format: ADME, organism-based.
Series [7] deals with N2a-cl3. Briefly: Inhibition of RML prion protein infected in mouse dividing ScN2a-cl3 cells expressing full length mouse PrP assessed as reduction of PrPsc level at 10 uM after 5 days by ELISA. The class given is cell-based.
A short description of series [8]: in vitro. The following applies: mouse, dividing ScN2a-cl3 cells.
Series [9] in a line: Cytotoxicity against mouse stationary-phase ScN2a-cl3 cells assessed as cell viability after 5 days by calcein-AM staining-based fluorescence assay. Details: species or system N2a-cl3. The note with it: read-out: LC50.
A short description of series [10]: Inhibition of RML prion protein infected in mouse stationary-phase ScN2a-cl3 cells expressing full length mouse PrP assessed as reduction of PrPsc level after 5 days. Format: cell-based. The following applies: N2a-cl3, 120 h.
Series [11] has as its system N2a-cl3. Briefly: Inhibition of RML prion protein infected in mouse stationary-phase ScN2a-cl3 cells expressing full length mouse PrP assessed as reduction of PrPsc level at 10 uM after 5 days by ELISA. Format: cell-based.

With `N#Cc1sc2nc(-c3ccc4c(c3)OCO4)ccc2c1N`, the 50% effective concentration (EC50) in series [1] turned out to be 520 nM; in series [2], 980 nM. In addition, the AUC(0-t) in [3] was found to be 1.56 µM·h; in series [6], 7.36 µM·h. In [4], this compound registered a peak concentration (Cmax) of 130 nM. For the same compound, in series [5], the Kp is 4.72.

For `CN1CCN(c2ccc(Nc3ccnc4cc(Cl)ccc34)cc2)CC1`, the EC50 in [1] was 2070 nM; in [2] it was 1360 nM. The AUC(0-t) in series [3] amounted to 0.82 µM·h; in series [6], 2.12 µM·h. This compound also yielded a Cmax in series [4] of 410 nM. Besides, the Kp in series [5] is 2.59.

In the case of `Cc1ccc2[nH]c3c(c2c1)CCCC3NCCCN(C)C` (stereo not drawn), the figures for the inhibition in series [7] and in series [11] were 88% and 94%, respectively. The EC50 in series [2] turned out to be 1580 nM; in series [10], 7500 nM. Besides, the CC50 at 120 h in series [8] and in series [9] was more than 10000 nM in each case.
